Where two headings read alike, the source gives them in different places.
What was measured:
5HT3 receptor [1] = target: T1, 5HT3 receptor (Rattus norvegicus, UniProt P35563); assay: inhibition of the binding of ^3 H-GR65630 in rat entorhinal cortex; parameters: labeled in the entorhinal cortex of the rat brain; from tissue; host or cells: rat entorhinal cortex; conditions: for binding model / interaction with 5-HT3 receptors: entorhinal cortex of the rat brain, ^3 H-GR 65630
T1 sequence (P35563 24-483): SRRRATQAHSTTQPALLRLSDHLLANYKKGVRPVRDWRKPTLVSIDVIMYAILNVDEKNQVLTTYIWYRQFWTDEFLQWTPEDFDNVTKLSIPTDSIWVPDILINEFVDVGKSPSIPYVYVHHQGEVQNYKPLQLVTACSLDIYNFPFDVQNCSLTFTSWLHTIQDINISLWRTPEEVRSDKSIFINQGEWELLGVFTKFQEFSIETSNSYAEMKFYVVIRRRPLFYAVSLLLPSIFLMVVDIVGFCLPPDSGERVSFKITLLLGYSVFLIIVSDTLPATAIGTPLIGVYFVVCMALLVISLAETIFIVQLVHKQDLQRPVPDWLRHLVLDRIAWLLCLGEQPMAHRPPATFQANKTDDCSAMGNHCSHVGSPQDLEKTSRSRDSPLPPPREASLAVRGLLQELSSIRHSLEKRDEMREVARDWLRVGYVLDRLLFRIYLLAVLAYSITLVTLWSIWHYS

5HT3 receptor [2] = target: T1, 5HT3 receptor; assay: von Bezold-Jarisch chemoreflex evoked by 5-HT in the anesthetised rat; type: in vivo; parameters: chemoreflex evoked by 5-HT in the anesthetised rat; from tissue; host or cells: whole living anesthetised rat, endogenous receptor (vagal afferents by own knowledge); conditions: 5-HT 20 μg/kg i.v., anesthetized rat; for % inhibition of the Bezold-Jarisch reflex: mean ± S.E.M. from 6 animals, *p < 0.01 vs controls (Dunnett's test)
Experimental: Pharmacol. 326, 36-44 (1984).
The following Table I reports the in vivo 5HT3 antagonist activity data obtained in this test for the representative compound of the invention 1-(1-azabicyclo[2.2.2]oct-3 yl)-3-(3-chlorophenyl)-imidazolidin-2-one (internal code FCE 26778).
Inhibition of the Bezold-Jarisch reflex elicited by 5-HT
(20 μg/kg i.v.) by i.v. FCE 26778 in the anesthetized rat.
Values are mean ± S.E.M. from 6 animals

Row | Structure (SMILES) | Ki (5HT3 receptor [1]) | binding model / interaction with 5-HT3 receptors (5HT3 receptor [1]) | Ki (5HT3 receptor [1]; [^3 H]GR 65630 labelled 5HT3 sites, rat entorhinal cortex, two site fitting, low affinity, read-out: Ki low) | % inhibition of the Bezold-Jarisch reflex (5HT3 receptor [2]; 30 μg/kg i.v.) | % inhibition of the Bezold-Jarisch reflex (5HT3 receptor [2]; 100 μg/kg i.v.) | % inhibition of the Bezold-Jarisch reflex (5HT3 receptor [2]; 300 μg/kg i.v.) | ED50 (5HT3 receptor [2]; iv, limits 54.50-98.39)
1 | CCN(CC)CCNC(=O)c1cc(Cl)c(N)cc1OC [Metoclopramide] | 547 nM | displaced ^3 H-GR 65630 according to one site non-linear fitting |  |  |  |  | 
2 | CN1C2CCC1CC(OC(=O)c1cc(Cl)cc(Cl)c1)C2 (centres unmarked) [MDL 72222] | 25.5 nM | displaced ^3 H-GR 65630 according to one site non-linear fitting |  |  |  |  | 
3 | O=C1N(c2cccc(Cl)c2)CCN1C1CN2CCC1CC2 (centres unmarked) [FCE 26778, 1-(1-azabicyclo[2.2.2]oct-3 yl)-3-(3-chlorophenyl)-imidazolidin-2-one] | 4.42 nM | interacted according to a two site non-linear fitting model | 1100 nM | 26.66 ± 5.25% | 59.57 ± 5.87% | 81.33 ± 3.32% | 0.0749 mg/kg

Source: patent US5242929A, “Derivatives of substituted imidazol-2-one and process for their preparation” (Farmitalia Carlo Erba S.r.l., priority 1991, dated 1993)
